Marks after values point to notes of the source that are not given here.

We go through 1 molecule from patent US6338963B1, “Use of carbon monoxide dependent guanylyl cyclase modifiers to stimulate neuritogenesis” (NeoTherapeutics, Inc., priority 1994, dated 2002).

The subject of one test is Swiss Webster mice. Kind of test: Win-shift T-maze memory test, Swiss Webster mice. The format is in vivo. The conditions noted are these: for Win-shift Memory Test, Correct responses: 90-second inter-trial interval. Here is the method: Male Swiss Webster mice six months (young adult) and eleven months (old) of age, obtained from the National Institute on Aging, were maintained in individual cages, on a […] light/dark cycle with continuous access to water. Food was limited so that the mice stabilized at 80% of free feeding weight. Mice were weighed and handled daily for one week. The win-shift model was run as described in the literature and consists of a T-maze in which the correct response alternates after each correct trial. The interval between trials is varied and allows for the determination of the longest period between trials that a subject can remember the correct response on the previous trial. This allows the measure of the duration of the memory trace. […] The reward goal box is alternated after each correct trial. Ten trials per mouse are run each day. […] The latency time to leave the start box is recorded as a measure of motivation, the running time (the time from leaving the start box to reaching the goal box) is recorded as a measure of performance, and the number of correct responses as a measure of memory.
The drugs used in this example are 4-((3-(1,6-dihydro-6-oxo-9-purin-9-yl)-1-oxopropyl)amino) benzoic acid (AIT-082), as an exemplary potassium salt, tacrine hydrochloride (tetrahydroaminoacridine, THA, Sigma Chemical Co., St. Louis, Mo.), and physostigmine, hemisulfate salt (PHY, Sigma Chemical Co., St. Louis, Mo.). The drugs were dissolved in saline and prepared fresh daily. All injections were made at a volume of 0.1 ml/10 grams body weight. When testing drug effects, intraperitoneal (i.p.) injections of AIT-082 or THA were made one hour prior to the start of testing. Due to its shorter duration of action, PHY was injected 30 minutes prior to testing. Control subjects receive a similar injection of saline (vehicle).
To determine the duration of the memory trace, subjects were administered drug or saline and 30 minutes (PHY) or 1 hour (AIT-082 or THA) later they were given a single reference run with the milk reward in both goal boxes. After the indicated inter-trial delay, subjects were returned to the start box and given the first test trial with the milk reward only in the goal box opposite to the one entered on the previous correct trial. The subjects were given 10 trials with the reward alternating only after correct responses.
To determine if tolerance to the biological effects of AIT-082 developed, drug or saline was administered daily for 18 days prior to the testing in the standard win-shift paradigm.

The subject of another test is BDNF mRNA. Kind of test: Northern blot of neurotrophin mRNA from astrocytes: BDNF. Set-up: key: The conditions which produced a detectable amount of each of the neurotrophin mRNAs are indicated by a “+”; a “++” indicating that at least twice the detectable amount was present; Those blots which were negative are indicated by a “−”. The format is cell-based, NIH Swiss mice. The following applies: 24 hours. As for the experimental part: Induction of neurotrophin mRNA was determined by northern blot analysis of astrocytes cultured with AIT-082, NGF, or both. The cells were harvested and RNA extracted at 24 hours after treatment.
More particularly, astrocytes from the cerebral cortex of NIH Swiss mice (Harlan) were isolated. Briefly, newborn pups (0-24 hours) were decapitated. Their brains were removed under aseptic conditions and were placed in modified Dulbecco's medium (DMEM) containing 20% heat-inactivated horse serum (Hyclone) (“complete medium”). The neopallium was then dissected from each cerebral hemisphere and minced into 1 mm cubes.
The astrocytes were then isolated by mechanical dissociation. The cubes were vortexed at maximum speed for one minute. The cell suspension was then passed first through 75 mm Nitex then through 10 mm Nitex. The resulting cell suspension was diluted in complete medium to a final concentration of one brain per 10 ml of complete medium. Ten milliliters of the diluted cell suspension was added to each 100 mm Falcon tissue culture plate (Fisher). After 3 days the medium was replaced with 10 ml fresh complete medium and subsequently was replaced twice weekly with DMEM containing 10% heat inactivated horse serum (“growth medium”). After two weeks in culture the astrocytes formed a confluent monolayer.
For RNA extraction, astrocytes were trypsinized. The astrocytes were then replated onto 100 mm PORN coated plates at a cell density of 10^6 cells per plate (10 ml growth medium). […]
The blots were probed with ^32P-labeled cDNA (NGF, NT-3 and BDNF probes) or oligonucleotide probe (FGF-2) by hybridization in Piperazine-N,N′-bis-(2-ethanesulfonic acid) (PIPES) buffer (50 mM PIPES, pH 6.8; 50 mM NaH2PO4; 0.1 M NaCl; 5% SDS and 1 mM EDTA) overnight at 50° C. […] Various concentrations ([…] of total RNA), as determined by spectrophotometry, of each sample were blotted and probed so that quantification could be done after insuring a linear film response. Quantification was performed using MCID Image Analysis (St. Catherine's, Ontario, Canada). […]

Another test relates to rat striatum. Kind of test: MRI of rat striatum injected with NMDA. In kind it is in vivo. As for the experimental part: T-2 weighted MRI photos of transverse brain 3-mm thick slices were performed (TR/TE=7400/115 ms; matrix 483×1024; FLV 250). Magnetic resonance images were acquired using 1.5 T scanner (Vision, Siemens-Erlangen). […] All animals survived the surgery and continued to receive treatment for an additional three days, at which time they were sacrificed and tissues were collected as described above.

`O=C(CCn1cnc2c(=O)[nH]cnc21)Nc1ccc(C(=O)O)cc1` [AIT-082, N-4-carboxyphenyl-3-(6-oxohydropurin-9-yl)propanamide]: the “Win-shift Memory Test, Correct responses” value in the test with Swiss Webster mice (AIT-082 0.5 mg/kg i.p.) is reported as 6.5* Correct responses/10 trials; in the test on Swiss Webster mice (AIT-082 30.0 mg/kg i.p.) it was 8.2* Correct responses/10 trials. The Tolerance in the test with Swiss Webster mice (AIT-082 30.0 mg/kg daily for 18 days prior to win-shift testing) is reported as 7.6* Correct responses/10 trials. Besides, the onset of action in the test with Swiss Webster mice (data not shown) came to 1 h. In addition, the duration of action result in the test with Swiss Webster mice (single dose of 60 mg/kg) is reported as “more than seven days”. The “BDNF mRNA” value in the test on BDNF mRNA (AIT-082 100 mM) and in the test with BDNF mRNA (AIT-082 + NGF (40 ng/ml)) was “+” throughout. For the same molecule, the “MRI brightness of the lesion” value is given as “disappeared” with rat striatum (AIT locally co-injected with NMDA) and “significantly reduced” in the test with rat striatum (systemic (intraperitoneal) AIT-082 60 mg/kg).
